Assay results reported in US20240271096A1, “EFFICIENT DIFFERENTIATION OF SECOND HEART FIELD CARDIAC PROGENITOR CELLS AND RIGHT VENTRICLE CARDIOMYOCYTES FROM HUMAN PLURIPOTENT STEM CELLS” (Wisconsin Alumni Research Foundation, priority 2023, published 2024).

System: reporterless hiPSC line
Test: Immunostaining of marker proteins in hiPSC-derived cardiac progenitor cells and cardiomyocytes
Format: cell-based, human
Description: For LV-cardiomyocyte differentiation, cardiac differentiation was performed according to the protocol published by (Lian et al., 2012, Proc Natl Acad Sci USA 109:[…]-57). Cells were dissociated with StemPro Accutase Cell Dissociation Reagent at 37° C. for 5 minutes. HESCs were seeded on Matrigel-coated 24-well plates (Corning) in StemFlex Medium supplemented with 10 μmol/[…] were seeded on iMatrix-511-coated 12-well plates (Corning) in StemFit A[…] supplemented with 10 μmol/[…] at seeding densities of 1×10^5 cells/cm^2 for hESCs and 1.25-2.5×10^4 cells/cm^2 for hiPSCs. Cells were cultured for 4 days until the start of differentiation (day 0). On day 0, the medium was changed to RPMI 1640 Medium (Thermo Fisher Scientific) supplemented with B-27 Supplement minus insulin (Thermo Fisher Scientific) (RPMI/B27-insulin) or B-27 Supplement with insulin (Thermo Fisher Scientific), and 12 μmol/L CHIR 99021 (SelleckChem, Houston, TX, United States), and the cells incubated in this medium for 24 h (day 1). On day 1, the medium was changed to RPMI/B27-insulin. […] On day 3, the medium was changed to RPMI/B27-insulin supplemented with 5 μmol/L IWP2 (SelleckChem) and on day 5, the medium was changed to 1 ml RPMI/B27-insulin. From day 7, the cells were cultured with RPMI/B27-insulin, and the cells were fed every other day. On day 12, the cells were washed with PBS (Thermo Fisher Scientific) and cultured with DMEM or RPMI, no glucose supplemented with 8 mmol/L L-(+)-Lactic acid (Merck) (Tohyama et al., 2013 Cell Stem Cell, 12:127-37). The medium was changed every other day until day 17. After day 17, the cells were cultured with RPMI/B27 and fed every 2 to 3 days. For long-term culture, the cells were dissociated with TrypLETM Select Enzyme (10×) (Thermo Fisher Scientific) at 37° C. for 15-20 minutes and seeded on Matrigel- or iMatrix-511-coated plates. […] For FIG. 15A and FIG. 15B, dorsomorphin (DM) or 3 μg/L insulin were added on day 0 (for 24 hours), 1, 3, or 5 (for 48 hours). Cells were plated on iMatrix-511-coated plates and fixed in 4% paraformaldehyde (Nacalai, Kyoto, Japan) for 15 minutes. Cells were permeabilized with 0.1% Triton X-100 (Sigma-Aldrich, St. Louis, MO, United States)/PBS and blocked with 10% goat serum (Sigma-Aldrich). Primary and secondary antibodies were diluted in 0.1% Triton X-100/PBS with 5% goat serum and stained with Hoechst 33342 (Thermo Fisher Scientific) at 1 μg/mL, mouse anti-cardiac troponin T monoclonal IgG1 (GTX28295, GeneTex, Irvine, CA, United States) diluted at 1:16000, mouse anti-α-actinin monoclonal IgG1 (A7811, Sigma-Aldrich) diluted at 1:1000, rabbit anti-MLC2v monoclonal IgG (ab92721, Abcam, Cambridge, United Kingdom) diluted at 1:500, rabbit anti-CXCR4 monoclonal IgG (ab181020, Abcam) diluted at 1:2000, rabbit anti-NKX2-5 monoclonal IgG (Cat #. […], Cell Signaling Technology, Danvers, MA, United States) diluted at 1:2500, mouse anti-Nav1.5 (Car #. ASC-013, Alomone Labs) diluted at 1:1000, rabbit anti-connexin 43 (Cat #. 83649, Cell Signaling Technology) diluted at 1:1000, and mouse anti-TBX5 monoclonal IgG2a (Cat #. sc-515536, Santa Cruz Biotechnology, Dallas, TX, United States) diluted at 1:500. These cells were then incubated with a secondary antibody, goat anti-mouse or rabbit polyclonal IgG conjugated with iFluor 488 or 555 (AAT Bioquest, Sunnyvale, CA, United States) diluted at 1:1000, for 1 hour at room temperature. The cells were then observed with IX71 (Olympus, Tokyo, Japan) or EVOS FL Auto (Thermo Fisher Scientific) and images processed with ImageJ ([…] al., 2012, Nat Methods, 9:671-5).

insulin
RV cardiomyocytes differentiation (added on day 1 for 48 hours): induced optimal RV cardiomyocytes differentiation
CXCR4 immunostaining (insulin day 0 to day 1, day 6): upregulation
TBX5 expression (immunostaining) (insulin day 0 to day 1, day 10): greatly reduced
expression of pan-cardiomyocyte markers NKX2-5 and cardiac Troponin T (cTnT) (insulin day 0 to day 1, day 10): expressed
immunostaining of TBX5 (insulin on day 1 for 48 hours (D1-3)): low
